Assay results published in patent publication US20170216350A1, “COMPOSITIONS OF ALUMINUM FLUORIDE AND METHODS OF USE THEREOF FOR THE TREATMENT AND PREVENTION OF ACTINIC KERATOSIS AND SUN-INDUCED DAMAGES” (priority 2012, published 2017).

Tested on: actinic keratosis lesions
Conditions: twice daily
Excerpt: A cream was applied on dry skin, on the whole forehead, twice daily. Aluminum fluoride at 0.30% w/w was used in a base cream containing Caprylic/Capric acids, sulfur, resorcinol, medium chain triglycerides, PEG 400, Pluronic F127, Ylang ylang oil and water .
Patient 2 is a person having actinic keratosis on their nose, in particular, two ulcers of about 1 mm each. The aluminum fluoride composition was at 0.30% w/w, and the base cream was modified to a cream containing deionized water, arachidyl alcohol, behenyl alcohol, arachidyl glucoside, montanoV 202, cetearyl alcohol, capric/caprilic triglyceride, isopropyl palmitate, steareth-2, dimethicon, steareth-20, allantoin, propylene glycol, Methylisothiazolinone (sheromix MT) and sodium benzoate.
A cream was applied on dry skin, on the cheek, twice daily. Aluminum fluoride at 0.30% w/w was used in a base cream containing Caprylic/Capric triglycerides, a polyethylene glycol component, hydrophilic non-ionic surfactant and purified water.
A cream was applied on dry skin, on the whole forehead, twice daily. Aluminum fluoride at 0.30% w/w was used in a base cream containing Caprylic/Capric triglycerides, a polyethylene glycol component, hydrophilic non-ionic surfactant and purified water.

Substance: aluminum fluoride
- actinic keratosis lesions (FIG. 1A/1B) (Patient 1, 8th decade, 0.30% w/w in base cream (Caprylic/Capric acids, sulfur, resorcinol, MCT, PEG 400, Pluronic F127), whole forehead, 3 weeks): gradual disappearance of lesions
- vascularization (FIG. 2(ii) compared to FIG. 2(i)) (Patient 2, 0.30% w/w in modified base cream): major decrease in vascularization
- actinic keratosis ulcers on nose (two ulcers of about 1 mm each) (Patient 2, 0.30% w/w in modified base cream, after approximately three weeks): closure of the first ulcer and disappearance of the second ulcer
- actinic keratosis lesions (FIG. 3A/3B) (Patient 6, 6th decade, 0.30% w/w in base cream (Caprylic/Capric triglycerides, polyethylene glycol component, non-ionic surfactant, water), cheek, 12 weeks): disappearance of lesions
- actinic keratosis lesions (FIG. 4A/4B) (Patient 13, 6th decade, 0.30% w/w in base cream (Caprylic/Capric triglycerides, polyethylene glycol component, non-ionic surfactant, water), whole forehead, 10 weeks): disappearance of lesions
